According to PMC9704104, “Towards safer anti-inflammatory therapy: synthesis of new thymol–pyrazole hybrids as dual COX-2/5-LOX inhibitors” (Journal of Enzyme Inhibition and Medicinal Chemistry, 2022):

Molecular target: T1, COX-2 (Ovis aries, UniProt P79208)
T1 sequence (P79208 17-603): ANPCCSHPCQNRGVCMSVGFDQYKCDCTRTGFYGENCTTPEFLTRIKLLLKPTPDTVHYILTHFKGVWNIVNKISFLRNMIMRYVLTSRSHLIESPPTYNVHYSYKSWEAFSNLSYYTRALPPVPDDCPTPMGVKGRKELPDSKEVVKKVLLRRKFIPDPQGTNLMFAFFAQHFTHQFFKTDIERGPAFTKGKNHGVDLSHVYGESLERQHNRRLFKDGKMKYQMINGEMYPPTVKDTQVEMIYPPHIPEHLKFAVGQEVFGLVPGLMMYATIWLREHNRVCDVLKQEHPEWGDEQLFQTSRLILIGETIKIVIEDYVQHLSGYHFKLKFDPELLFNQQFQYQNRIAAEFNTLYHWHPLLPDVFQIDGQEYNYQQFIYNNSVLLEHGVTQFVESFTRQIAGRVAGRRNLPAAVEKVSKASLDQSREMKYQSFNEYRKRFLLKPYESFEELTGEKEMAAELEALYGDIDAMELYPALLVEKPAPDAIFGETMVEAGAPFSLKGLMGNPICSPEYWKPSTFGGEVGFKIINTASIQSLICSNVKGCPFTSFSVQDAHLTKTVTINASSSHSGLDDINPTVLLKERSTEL
Assay: In vitro COX-2 inhibitory assay (Cayman colorimetric COX (ovine) inhibitor screening assay kit)
Assay type: biochemical
Procedure: (Page: S20, Supplementary file).
Anti-inflammatory activity
In vitro COX-1 and COX-2 inhibitory assay […]
supplied by Cayman chemicals, Ann Arbor, MI, USA according to reported method 1. The colorimetric COX inhibitor screening assay utilizes the peroxidase component of cyclooxygenase. The peroxidase activity was assayed calorimetrically by monitoring the appearance of oxidized N,N,N',N'-tetramethyl-1,4-phenylenediamine (TMPD) at 590nm. The appearance of reagent was carried out following the instructions […]
The half- maximal inhibitor concentrations (IC50µM) were determined and the selectivity index (SI) values were calculated as IC50 (COX-1)/IC50 (COX-2).
1) Background wells- 160 µL of assay buffer and 10 µL of heme were added to background wells.
2) The 100% Initial activity wells- 150 µL of assay buffer, 10 µL of heme and 10 µL of enzyme (COX-1 or COX-2) were added.
3) Inhibitor well- 150 µL of assay buffer, 10 µL of heme and 10 µL of enzyme were added. […]
10) The absorbance was measured at 590 nm using a plate reader. […]
1) The average absorbance of all samples was determined.
2) The absorbance of background wells was subtracted from absorbance of the 100% Initial activity […]
7) Remove the cover and read the absorbance at 490-500 nm using a plate reader. […]
2) The absorbance of blank wells was subtracted from absorbance of the 100% Initial activity and the […]

## Cc1ccc(C(C)C)c(O)c1C=NNC(=O)c1cc(-c2ccccc2)n(-c2ccccc2)n1 [Compound 8d, N'-(2-Hydroxy-3-isopropyl-6-methylbenzylidene)-1,5-diphenyl-1H-pyrazole-3-carbo-hydrazide]
SI = COX-1 IC50/COX-2 IC50
  Selectivity index: 92.6
Mean of three replicates ± SD
  IC50: 110 ± 7 nM
